Assay results reported in PubChem BioAssay AID266 (DTP/NCI, 2004).
“And” between values parts separate entries of the source, which are not always exact repeats. Equal entries are not always repeated. Records with an inconclusive call do not appear.

Tested on: Nude mice, LX-1 lung xenograft intrarenal, tumor weight T/C
Experiment: NCI In Vivo Anticancer Drug Screen. Data for tumor model Human Lung LX-1 Xenograft (intrarenal inoculation) in NU/NU BALB/C (nude) mice
Conditions: endpoint: mean tumor weight change, higher = larger tumour
Procedure: The antitumor activity of compounds was measured in mice bearing transplantable tumors. Survival or tumor size were measured and the results are expressed as the measurement made in the treated group (T) divided by the measurement made in the vehicle treated control group (C). The tumor model used in this assay is Human Lung LX-1 Xenograft (intrarenal inoculation) in NU/NU BALB/C (nude) mice

[1] = dose: 600.0 mg/kg/injection, schedule: Q04DX003 (sc), vehicle: saline with Tween-80
[2] = dose: 1200.0 mg/kg/injection, schedule: Q04DX003 (sc), vehicle: saline with Tween-80
[3] = dose: 2400.0 mg/kg/injection, schedule: Q04DX003 (sc), vehicle: saline with Tween-80

With CC(=O)NC(CCc1ccc(Cl)c(Cl)c1)c1cccc(O)c(=O)c1 (stereo not drawn) the T/C (dose: 50.0 mg/kg/injection, schedule: Q04DX003 (ip), vehicle: Klucel (hydroxypropylcellulose) (HPC)) was 52 % of control, the T/C (dose: 100.0 mg/kg/injection, schedule: Q04DX003 (ip), vehicle: Klucel (hydroxypropylcellulose) (HPC)) was 62 % of control and the T/C (dose: 200.0 mg/kg/injection, schedule: Q04DX003 (ip), vehicle: Klucel (hydroxypropylcellulose) (HPC)) was 57 % of control.

With Oc1cc2ccccc2c(-c2c(O)c(O)cc3ccccc23)c1O the T/C [1] was 122 % of control, the T/C [2] was 95 % of control and the T/C [3] was 84 % of control.

With N=c1c(C(=O)OCc2ccccc2)ncc(CCl)n1O the T/C (dose: 300.0 mg/kg/injection, schedule: Q04DX003 (sc), vehicle: saline with Tween-80) was 87 % of control, the T/C [1] was 83 % of control and the T/C [2] was 91 % of control. The T/C [3] was 81 % of control.

O=C(NO)c1ccccc1 was tested, and the T/C (dose: 100.0 mg/kg/injection, schedule: Q01DX010 (sc), vehicle: Klucel (hydroxypropylcellulose) (HPC)) was 120 % of control and the T/C (dose: 200.0 mg/kg/injection, schedule: Q01DX010 (sc), vehicle: Klucel (hydroxypropylcellulose) (HPC)) was 150 % of control.

In the case of N[C@H](C(=O)O)[C@@H]1CC(Cl)=NO1, the T/C (dose: 0.5 mg/kg/injection, schedule: Q01DX010 (sc), vehicle: saline) is reported as 44 % of control, the T/C (dose: 2.0 mg/kg/injection, schedule: Q01DX010 (sc), vehicle: saline) is reported as 223 % of control and 82 % of control and the T/C (dose: 2.0 mg/kg/injection, schedule: Q02DX005 (sc), vehicle: saline) is reported as 150 % of control. For the same compound, the T/C (dose: 4.0 mg/kg/injection, schedule: Q02DX005 (sc), vehicle: saline) was 227 % of control, the T/C (dose: 8.0 mg/kg/injection, schedule: Q01DX010 (sc), vehicle: saline) was 361 % of control and the T/C (dose: 8.0 mg/kg/injection, schedule: Q02DX005 (sc), vehicle: saline) was 159 % of control. For the same compound, the T/C (dose: 16.0 mg/kg/injection, schedule: Q01DX010 (sc), vehicle: saline) was 63 % of control, the T/C (dose: 16.0 mg/kg/injection, schedule: Q02DX005 (sc), vehicle: saline) was 253 % of control and the T/C (dose: 32.0 mg/kg/injection, schedule: Q01DX010 (sc), vehicle: saline) was 35 % of control. The T/C (dose: 32.0 mg/kg/injection, schedule: Q02DX005 (sc), vehicle: saline) was 68 % of control.

For CN(C)N=Nc1cccc(C(N)=O)c1, the T/C (dose: 25.0 mg/kg/injection, schedule: Q04DX003 (sc), vehicle: Klucel (hydroxypropylcellulose) (HPC)) was 20 % of control and the T/C (dose: 200.0 mg/kg/injection, schedule: Q04DX003 (sc), vehicle: Klucel (hydroxypropylcellulose) (HPC)) was -93 % of control.

For O=CNCO, the T/C (dose: 250.0 mg/kg/injection, schedule: Q01DX010 (sc), vehicle: water) was 72 % of control, the T/C (dose: 500.0 mg/kg/injection, schedule: Q01DX010 (sc), vehicle: water) was 87 % of control and the T/C (dose: 1000.0 mg/kg/injection, schedule: Q01DX010 (sc), vehicle: water) was 100 % of control. For the same compound, the T/C (dose: 2000.0 mg/kg/injection, schedule: Q01DX010 (sc), vehicle: water) was 80 % of control.

In the case of CC[C@](C)(O)C(=O)O[C@H]1C(=O)O[C@@H]2C[C@H]3C(C)=CC(=O)[C@@H](O)[C@]3(C)[C@H]3[C@@]4(O)OC[C@]32[C@@H]1[C@@H](C)[C@H]4O, the T/C (dose: 0.5 mg/kg/injection, schedule: Q01DX010 (sc), vehicle: Klucel (hydroxypropylcellulose) (HPC)) is reported as 38 % of control and the T/C (dose: 1.0 mg/kg/injection, schedule: Q01DX010 (sc), vehicle: Klucel (hydroxypropylcellulose) (HPC)) is reported as 17 % of control.

For COc1c(C=O)c2c(c(OC)c1OC)-c1ccc(OC)c(=O)cc1[C@@H](NC(C)=O)CC2, the T/C (dose: 18.75 mg/kg/injection, schedule: Q04DX003 (sc), vehicle: Klucel (hydroxypropylcellulose) (HPC)) was 83 % of control, the T/C (dose: 37.5 mg/kg/injection, schedule: Q04DX003 (sc), vehicle: Klucel (hydroxypropylcellulose) (HPC)) was 59 % of control and the T/C (dose: 75.0 mg/kg/injection, schedule: Q04DX003 (sc), vehicle: Klucel (hydroxypropylcellulose) (HPC)) was 32 % of control.

In the case of CCN(CC)CCNc1ccc(C)c2sc3ccccc3c(=O)c12, the T/C (dose: 50.0 mg/kg/injection, schedule: Q01DX010 (sc), vehicle: saline) is reported as 211 % of control.

COc1cccc2c1C(=O)c1c(O)c3c(c(O)c1C2=O)C[C@@](O)(C(=O)CO)C[C@@H]3OC1CC(OC(C)=O)C(OC(C)=O)C(C)O1 (stereo partly drawn) was tested, and the T/C (dose: 25.0 mg/kg/injection, schedule: Q01DX010 (sc), vehicle: distilled water + Tween-80) was 53 % of control.

For Nc1nc(=S)c2[nH]cnc2[nH]1, the T/C (dose: 0.4 mg/kg/injection, schedule: Q01DX010 (sc), vehicle: Klucel (hydroxypropylcellulose) (HPC)) was 105 % of control, the T/C (dose: 1.6 mg/kg/injection, schedule: Q01DX010 (sc), vehicle: Klucel (hydroxypropylcellulose) (HPC)) was 76 % of control and the T/C (dose: 3.2 mg/kg/injection, schedule: Q01DX010 (sc), vehicle: Klucel (hydroxypropylcellulose) (HPC)) was 58 % of control.
